{"source": "paper PMC6807911", "about": "“A structure-based approach towards the identification of novel antichagasic compounds: Trypanosoma cruzi carbonic anhydrase inhibitors” (Journal of Enzyme Inhibition and Medicinal Chemistry, 2019)"}
{"target": "T1, TcCA (Trypanosoma cruzi carbonic anhydrase) (Trypanosoma cruzi, UniProt Q4CVY4)", "T1 construct": "gene Tc00.1047053509597.20", "T1 sequence (Q4CVY4 39-638)": "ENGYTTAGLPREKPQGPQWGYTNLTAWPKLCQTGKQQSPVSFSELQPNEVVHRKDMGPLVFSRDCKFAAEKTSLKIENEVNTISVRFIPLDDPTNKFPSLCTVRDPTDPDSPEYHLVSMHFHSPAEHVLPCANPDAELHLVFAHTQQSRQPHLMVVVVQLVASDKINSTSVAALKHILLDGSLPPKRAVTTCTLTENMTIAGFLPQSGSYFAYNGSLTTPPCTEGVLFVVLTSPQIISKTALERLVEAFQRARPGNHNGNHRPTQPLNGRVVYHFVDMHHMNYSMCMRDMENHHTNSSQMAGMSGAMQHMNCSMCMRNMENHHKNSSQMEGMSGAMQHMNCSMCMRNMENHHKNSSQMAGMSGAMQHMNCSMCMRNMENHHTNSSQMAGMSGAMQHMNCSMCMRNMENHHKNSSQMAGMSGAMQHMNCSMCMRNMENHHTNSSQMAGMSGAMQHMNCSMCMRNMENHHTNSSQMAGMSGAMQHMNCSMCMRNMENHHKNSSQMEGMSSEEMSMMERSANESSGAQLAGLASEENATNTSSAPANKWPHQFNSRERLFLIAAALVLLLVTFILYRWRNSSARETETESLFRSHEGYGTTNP", "assay": "stopped-flow CO2 hydration assay", "type": "biochemical", "conditions": "read-out: KITcCA", "from_the_text": "stopped-flow CO2 hydration assay on TcCA (Trypanosoma cruzi carbonic anhydrase)", "units": {"Ki": "µM"}}
{"smiles": "COC(=O)[C@H](Cc1ccccc1)NS(=O)(=O)NCC(C)C", "note": "[compound 5, 5]", "Ki": 0.261}
{"smiles": "CC1=CC(=O)NS(=O)(=O)O1", "note": "[Acesulphame]", "Ki": 2.24}
{"smiles": "O=S(=O)(O)NC1CCCCC1", "note": "[Sodium cyclamate]", "Ki": 0.348}
{"smiles": "COC(=O)CCNS(=O)(=O)NCCc1ccccc1", "note": "[compound 7, 7]", "Ki": 7.25}
